In patent US8999691B2 (priority 2010, dated 2015):

Experiments:
[1] = molecular target: Botryotinia fuckeliana glucose dehydrogenase (Bfu-GDH, FAD-GDH), wild type, SEQ ID NO:2 (Botrytis cinerea, UniProt A0A384K3P1); test: Michaelis-Menten saturation kinetics with glucose (DCIP/PMS dehydrogenase assay); format: biochemical
From the text: (§1) Transformants BL21(DE3) for expressing each of the modified enzymes were pre-cultured.

[2] = molecular target: Botryotinia fuckeliana glucose dehydrogenase (Bfu-GDH, SEQ ID NO:2) variant N176R (Botrytis cinerea, UniProt A0A384K3P1, N192R); conditions: glucose 1-40 mM; pH 6.5; partially purified enzyme
Description: (§2) Site-specific mutagenesis was carried out by the QuikChange™ method. In the QuikChange™ method, the pET30c-Bfu-GDH created in Example 1 was used as the template, and amplified by PCR with mutagenesis primers. Next, DpnI was added to the reaction mixture and incubated at 37° C. for 60 minutes to digest the template DNA, and E. coli DH5a was transformed. After culturing overnight in an LB agar culture (50 μg/mL kanamycin), the plasmid was extracted from randomly selected clones, and the sequence was analyzed to confirm that the target mutation was introduced. The resulting PCR products were NdeI and HindIII digested (37° C., 2 hours), ligated with the same restriction enzyme-digested pET30c, and E. coli BL21(DE3) was transformed. After culturing overnight In an LB agar medium (50 μg/mL kanamycin), the plasmid was extracted from randomly selected clones, and the sequence was analyzed to confirm the mutation.
as §1

[3] = molecular target: Botryotinia fuckeliana glucose dehydrogenase (Bfu-GDH, SEQ ID NO:2) variant G53A/S514G (Botrytis cinerea, UniProt A0A384K3P1, G69A/S530G); conditions: glucose 1-40 mM; pH 6.5; partially purified enzyme
Description: as §2, §1

[4] = molecular target: Botryotinia fuckeliana glucose dehydrogenase (Bfu-GDH, SEQ ID NO:2) variant N176S (Botrytis cinerea, UniProt A0A384K3P1, N192S); conditions: glucose 1-40 mM; pH 6.5; partially purified enzyme
Description: as §2, §1

[5] = molecular target: Botryotinia fuckeliana glucose dehydrogenase (Bfu-GDH, SEQ ID NO:2) variant S552C (Botrytis cinerea, UniProt A0A384K3P1, S568C); conditions: glucose 1-40 mM; pH 6.5; partially purified enzyme
Description: as §2, §1

[6] = molecular target: Botryotinia fuckeliana glucose dehydrogenase (Bfu-GDH, SEQ ID NO:2) variant N176E (Botrytis cinerea, UniProt A0A384K3P1, N192E); conditions: glucose 1-40 mM; pH 6.5; partially purified enzyme
Description: as §2, §1

[7] = molecular target: Botryotinia fuckeliana glucose dehydrogenase (Bfu-GDH, SEQ ID NO:2) variant N176K (Botrytis cinerea, UniProt A0A384K3P1, N192K); conditions: glucose 1-40 mM; pH 6.5; partially purified enzyme
Description: as §2, §1

[8] = molecular target: Botryotinia fuckeliana glucose dehydrogenase (Bfu-GDH, SEQ ID NO:2) variant G53A (Botrytis cinerea, UniProt A0A384K3P1, G69A); conditions: glucose 1-40 mM; pH 6.5; partially purified enzyme
Description: as §2, §1

[9] = molecular target: Botryotinia fuckeliana glucose dehydrogenase (Bfu-GDH, SEQ ID NO:2) variant S514G (Botrytis cinerea, UniProt A0A384K3P1, S530G); conditions: glucose 1-40 mM; pH 6.5; partially purified enzyme
Description: as §2, §1

[10] = substrate: OC[C@H]1OC(O)[C@H](O)[C@@H](O)[C@@H]1O; test: purified protein, by the assay type; format: biochemical, Aspergillus oryzae T1; conditions: other: glucose, DCIP/PMS, pH 6.5, enzyme expressed 20° C./28 h
From the text: According to a prediction from the SignalP 3.0 Server, the region from the N-terminus to the Lys residue at the position 23 was predicted to be a signal peptide. A nucleotide sequence which encodes the amino acid sequence having the initiation methionine and the downstream sequence from the Asn residue at the position 24 was designed and totally synthesized. The amino acid sequence of the protein (referred to below as “Ao-GDH”) encoded by the gene thus obtained is shown in SEQ ID NO:4. E. coli BL21(DE3) (F—, ompT, hsdSB(rB- mB-), gal(λcI 857, ind1, Sam7, nin5, LacUV5-T7gene1), dcm(DE3): from Novagen) was used as the host for recombinant production. The gene expression vector used was pET30c (kan, LacI; from Novagen), and the chaperone co-expression vector used was pGro7 (GroEL, GroES; from TaKaRa).
(§3) (10-fold dilution at a final concentration).

[11] = substrate: OC[C@H]1OC(O)[C@H](O)[C@@H](O)[C@@H]1O; test: purified protein, by the assay type; format: biochemical, Aspergillus oryzae T1; conditions: other: glucose, DCIP/PMS, pH 6.5, enzyme expressed 20° C./28 h; remark: listed apart in the source
From the text: as §3

Molecule: OC[C@H]1OC(O)[C@H](O)[C@@H](O)[C@@H]1O (some centres unmarked) [glucose]
- Vmax ([1]; Table 3 (unit not given), glucose): 8.7
- Vmax (apparent maximum activity) ([1]; glucose 1-40 mM, pH 6.5, partially purified enzyme): 8.7 U/mg protein
- Vmax (apparent maximum activity) [2]: 24.9 U/mg protein
- Vmax (apparent maximum activity) [3]: 8.9 U/mg protein
- Vmax (apparent maximum activity) [4]: 11.5 U/mg protein
- Vmax (apparent maximum activity) [5]: 7.8 U/mg protein
- Vmax (apparent maximum activity) [6]: 10.4 U/mg protein
- Vmax (apparent maximum activity) [7]: 25.1 U/mg protein
- Vmax (apparent maximum activity) [8]: 8.1 U/mg protein
- Vmax (apparent maximum activity) [9]: 36.6 U/mg protein

B1: Aspergillus oryzae T1 glucose dehydrogenase (Ao-GDH, FAD-GDH), wild type, SEQ ID NO:4 (Aspergillus oryzae) (protein)
chain: MNTTTYDYIVVGGGTSGLVVANRLSENPDVSVLLLEAGASVFNNPDVTNANGYGLAFGSAIDWQYQSINQSYAGGKQQVLRAGKALGGTSTINGMAYTRAEDVQIDVWQKLGNEGWTWKDLLPYYLKSENLTAPTSSQVAAGAAYNPAVNGKEGPLKVGWSGSLASGNLSVALNRTFQAAGVPWVEDVNGGKMRGFNIYPSTLDVDLNVREDAARAYYFPYDDRKNLHLLENTTANRLFWKNGSAEEAIADGVEITSADGKVTRVHAKKEVIISAGALRSPLILELSGVGNPTILKKNNITPRVDLPTVGENLQDQFNNGMAGEGYGVLAGASTVTYPSISDVFGNETDSIVASLRSQLSDYAAATVKVSNGHMKQEDLERLYQLQFDLIVKDKVPIAEILFHPGGGNAVSSEFWGLLPFARGNIHISSNDPTAPAAINPNYFMFEWDGKSQAGIAKYIRKILRSAPLNKLIAKETKPGLSEIPATAADEKWVEWLKANYRSNFHPVGTAAMMPRSIGGVVDNRLRVYGTSNVRVVDASVLPFQVCGHLVSTLYAVAERASDLIKEDAKSA
- Km [10]: 44.7 mM
- Vmax [10]: 120 µmol/min/mg

B2: Aspergillus oryzae T1 glucose dehydrogenase (Ao-GDH, SEQ ID NO:4) variant G190C (Aspergillus oryzae; G212C) (protein)
chain: MNTTTYDYIVVGGGTSGLVVANRLSENPDVSVLLLEAGASVFNNPDVTNANGYGLAFGSAIDWQYQSINQSYAGGKQQVLRAGKALGGTSTINGMAYTRAEDVQIDVWQKLGNEGWTWKDLLPYYLKSENLTAPTSSQVAAGAAYNPAVNGKEGPLKVGWSGSLASGNLSVALNRTFQAAGVPWVEDVNCGKMRGFNIYPSTLDVDLNVREDAARAYYFPYDDRKNLHLLENTTANRLFWKNGSAEEAIADGVEITSADGKVTRVHAKKEVIISAGALRSPLILELSGVGNPTILKKNNITPRVDLPTVGENLQDQFNNGMAGEGYGVLAGASTVTYPSISDVFGNETDSIVASLRSQLSDYAAATVKVSNGHMKQEDLERLYQLQFDLIVKDKVPIAEILFHPGGGNAVSSEFWGLLPFARGNIHISSNDPTAPAAINPNYFMFEWDGKSQAGIAKYIRKILRSAPLNKLIAKETKPGLSEIPATAADEKWVEWLKANYRSNFHPVGTAAMMPRSIGGVVDNRLRVYGTSNVRVVDASVLPFQVCGHLVSTLYAVAERASDLIKEDAKSA
- Km [11]: 51.3 mM
- Vmax [11]: 119 µmol/min/mg
